US11186576B2, “Pyrazolo[1,5-A][1,3,5]triazine and pyrazolo[1,5-A]pyrimidine derivatives as CDK inhibitors” (Aurigene Discovery Technologies Limited, priority 2015, dated 2021)

Molecular target: CDK7/CycH/MNAT1 (Homo sapiens (Human), UniProt P50613)
Experiment: Biochemical assay for CDK7 (TR-FRET kinase assay)
Details: 60 min pre-incubation, 1 mM ATP; for inhibition at 10 µM: 10 μM compound, read-out: % inhibition @ 10 μM; for IC50: read-out: IC50
Description: The ability of compounds to inhibit CDK7 kinase activity was tested in a TR-FRET assay using 5 nM of CDK7/CycH/MNAT1 obtained from Invitrogen, USA. Test compounds were pre-incubated with the kinase at room temperature for 60 min. After incubation, substrate mix [100 nM Ultra-light MBP (Perkin Elmer, USA) and 1 mM ATP (Sigma)] was added. The above reaction was stopped by the addition of 40 mM EDTA after 60 minutes of kinase reaction. 1 nM Eu-labelled antiphospho-MBP antibody [Perkin Elmer, USA] was added, mixed well and the fluorescence emission at 615 nm and 665 nm [excitation at 340 nm] was measured. The final DMSO concentration in the assay was 1%. For IC50 determination, appropriate concentrations were made by ⅓^rd serial dilutions of 10 mM DMSO stock solution of test compound. All the fluorescence measurements were made in a Victor 3 Multilabel Counter [Perkin Elmer, USA]. The IC50 was determined by fitting the dose response data to sigmoidal curve fitting equation using GraphPad Prism software V5. To identify compounds that inhibit CDK7 irreversibly, time depended inhibition studies were carried by pre-incubating compound with the enzyme at three time points (20, 60 and 180 min) and carrying out assay as described above.

Chain of CDK7/CycH/MNAT1 (P50613 whole entry): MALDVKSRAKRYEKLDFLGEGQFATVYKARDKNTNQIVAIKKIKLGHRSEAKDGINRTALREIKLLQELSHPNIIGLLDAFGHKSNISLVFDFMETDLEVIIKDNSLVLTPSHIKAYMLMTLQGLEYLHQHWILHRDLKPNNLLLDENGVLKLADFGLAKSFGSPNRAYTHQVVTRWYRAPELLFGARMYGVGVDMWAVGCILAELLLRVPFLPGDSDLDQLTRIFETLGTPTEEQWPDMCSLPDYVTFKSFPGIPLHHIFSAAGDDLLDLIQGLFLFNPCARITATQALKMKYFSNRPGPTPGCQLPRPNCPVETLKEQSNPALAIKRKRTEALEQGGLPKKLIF
Chain of CDK7/CycH/MNAT1 (P51946 whole entry partner): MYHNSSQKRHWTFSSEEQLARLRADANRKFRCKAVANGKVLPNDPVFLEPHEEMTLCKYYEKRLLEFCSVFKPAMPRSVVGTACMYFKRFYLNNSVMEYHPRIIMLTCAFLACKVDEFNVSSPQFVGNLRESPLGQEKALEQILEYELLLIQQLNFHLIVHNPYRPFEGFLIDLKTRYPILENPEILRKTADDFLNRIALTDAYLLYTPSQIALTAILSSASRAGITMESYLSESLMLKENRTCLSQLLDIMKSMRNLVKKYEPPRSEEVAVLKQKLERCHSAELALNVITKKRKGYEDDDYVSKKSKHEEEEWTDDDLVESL
Chain of CDK7/CycH/MNAT1 (P51948 whole entry partner): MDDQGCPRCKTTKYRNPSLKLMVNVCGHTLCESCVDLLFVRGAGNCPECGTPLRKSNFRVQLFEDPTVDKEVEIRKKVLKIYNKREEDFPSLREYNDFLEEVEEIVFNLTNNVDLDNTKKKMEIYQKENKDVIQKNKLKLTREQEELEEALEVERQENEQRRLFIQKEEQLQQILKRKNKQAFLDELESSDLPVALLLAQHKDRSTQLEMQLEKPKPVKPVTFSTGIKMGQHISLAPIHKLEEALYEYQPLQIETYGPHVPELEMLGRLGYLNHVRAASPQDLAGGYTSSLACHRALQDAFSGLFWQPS

C=CC(=O)N1CCC(C(=O)Nc2cccc(CNc3nc(OCCOC)nc4c(C(C)C)cnn34)c2)C1 (stereo not shown) [Compound 103, 1-acryloyl-N-(3-(((8-isopropyl-2-(2-methoxyethoxy)pyrazolo[1,5-a][1,3,5]triazin-4-yl)amino)methyl)phenyl)pyrrolidine-3-carboxamide]
inhibition at 10 µM: 80% | IC50: > 1000 nM

C=CC(=O)NCC(=O)Nc1cccc(CNc2nc(NC3CCOCC3)nc3c(C(C)C)cnn23)c1 [Compound 79, N-(2-((3-(((8-isopropyl-2-((tetrahydro-2H-pyran-4-yl)amino)pyrazolo[1,5-a][1,3,5]triazin-4-yl)amino)methyl)phenyl)amino)-2-oxoethyl)acrylamide]
inhibition at 10 µM: 96% | IC50: < 300 nM

C=CC(=O)N1CCC(C(=O)Nc2cccc(CNc3nc(NC4CCCC(O)C4)nc4c(C(C)C)cnn34)c2)C1 (single isomer, unassigned) [Compound 12, 1-acryloyl-N-(3-(((2-((3-hydroxycyclohexyl)amino)-8-isopropylpyrazolo[1,5-a][1,3,5]triazin-4-yl)amino)methyl)phenyl)pyrrolidine-3-carboxamide]
inhibition at 10 µM: 92% | IC50: 300 to 1000 nM

CC(C)c1cnn2c(NCc3cccc(NC(=O)/C=C/CN4CCC(F)C4)c3)nc(NC3CCOCC3)nc12 (stereo not shown) [Compound 56, (E)-4-(3-fluoropyrrolidin-1-yl)-N-(3-(((8-isopropyl-2-((tetrahydro-2H-pyran-4-yl)amino)pyrazolo[1,5-a][1,3,5]triazin-4-yl)amino)methyl)phenyl)but-2-enamide]
inhibition at 10 µM: 97% | IC50: < 300 nM

C/C=C/C(=O)N1CCC1C(=O)Nc1cccc(CNc2nc(NC3CCOCC3)nc3c(C(C)C)cnn23)c1 (stereo not shown) [Compound 65, (E)-1-(but-2-enoyl)-N-(3-(((8-isopropyl-2-((tetrahydro-2H-pyran-4-yl)amino)pyrazolo[1,5-a][1,3,5]triazin-4-yl)amino)methyl)phenyl)azetidine-2-carboxamide]
inhibition at 10 µM: 86% | IC50: > 1000 nM

C=CC(=O)N1CCC1C(=O)Nc1cc(CNc2nc(NC3CCOCC3)nc3c(C(C)C)cnn23)ccc1C (stereo not shown) [Compound 28, 1-acryloyl-N-(5-(((8-isopropyl-2-((tetrahydro-2H-pyran-4-yl)amino)pyrazolo[1,5-a][1,3,5]triazin-4-yl)amino)methyl)-2-methylphenyl)azetidine-2-carboxamide]
inhibition at 10 µM: 99% | IC50: < 300 nM

C=CC(=O)N1C(C)CCCC1C(=O)Nc1cccc(CNc2nc(NC3CCOCC3)nc3c(C(C)C)cnn23)c1 (stereo not shown) [Compound 40C, 1-acryloyl-N-(3-(((8-isopropyl-2-((tetrahydro-2H-pyran-4-yl)amino)pyrazolo[1,5-a][1,3,5]triazin-4-yl)amino)methyl)phenyl)-6-methylpiperidine-2-carboxamide]
IC50: < 300 nM

C=CC(=O)N1CC[C@@H]1C(=O)Nc1cccc(CNc2nc(NC3CCOCC3)nc3c(C(C)C)cnn23)c1 [Compound 19, (R)-1-acryloyl-N-(3-(((8-isopropyl-2-((tetrahydro-2H-pyran-4-yl)amino)pyrazolo[1,5-a][1,3,5]triazin-4-yl)amino)methyl)phenyl)azetidine-2-carboxamide]
inhibition at 10 µM: 100% | IC50: < 300 nM

C=CC(=O)N1CCC(C(=O)Nc2cccc(Nc3nc(OC4CCN(C)CC4)nc4c(C(C)C)cnn34)c2)CC1 [Compound 127, 1-acryloyl-N-(3-((8-isopropyl-2-((1-methylpiperidin-4-yl)oxy)pyrazolo[1,5-a][1,3,5]triazin-4-yl)amino)phenyl)piperidine-4-carboxamide]
inhibition at 10 µM: 95% | IC50: < 300 nM

C=CC(=O)N1CCCCC1C(=O)Nc1cc(F)cc(CNc2nc(NC3CCOCC3)nc3c(C(C)C)cnn23)c1 (stereo not shown) [Compound 36, 1-acryloyl-N-(3-fluoro-5-(((8-isopropyl-2-((tetrahydro-2H-pyran-4-yl)amino)pyrazolo[1,5-a][1,3,5]triazin-4-yl)amino)methyl)phenyl)piperidine-2-carboxamide]
inhibition at 10 µM: 91% | IC50: 300 to 1000 nM

C=CC(=O)N[C@H]1CC[C@@H](C(=O)Nc2cccc(CNc3nc(NC4CCOCC4)nc4c(C(C)C)cnn34)c2)CC1 [Compound 7, (1,4-cis)-4-acrylamido-N-(3-(((8-isopropyl-2-((tetrahydro-2H-pyran-4-yl)amino)pyrazolo[1,5-a][1,3,5]triazin-4-yl)amino)methyl)phenyl)cyclohexane-1-carboxamide]
inhibition at 10 µM: 91% | IC50: > 1000 nM

C=CC(=O)Nc1cc(C(=O)Nc2cccc(CNc3nc(NC4CCOCC4)nc4c(C(C)C)cnn34)c2)ccc1C [Compound 40A, 3-acrylamido-N-(3-(((8-isopropyl-2-((tetrahydro-2H-pyran-4-yl)amino)pyrazolo[1,5-a][1,3,5]triazin-4-yl)amino)methyl)phenyl)-4-methylbenzamide]
IC50: < 300 nM

C=CC(=O)N1CCCCC1C(=O)Nc1cccc(CNc2nc(NC3CCOCC3)nc3c(C(C)C)cnn23)c1F (stereo not shown) [Compound 35, 1-acryloyl-N-(2-fluoro-3-(((8-isopropyl-2-((tetrahydro-2H-pyran-4-yl)amino)pyrazolo[1,5-a][1,3,5]triazin-4-yl)amino)methyl)phenyl)piperidine-2-carboxamide]
inhibition at 10 µM: 99% | IC50: < 300 nM

CC(C)c1cnn2c(NCc3cccc(NC(=O)C4CCN4C/C=C/C(=O)N(C)C)c3)nc(NC3CCOCC3)nc12 (stereo not shown) [Compound 76, (E)-1-(4-(dimethylamino)-4-oxobut-2-en-1-yl)-N-(3-(((8-isopropyl-2-((tetrahydro-2H-pyran-4-yl)amino)pyrazolo[1,5-a][1,3,5]triazin-4-yl)amino)methyl)phenyl)azetidine-2-carboxamide]
inhibition at 10 µM: 81% | IC50: > 1000 nM

CC(C)=CC(=O)N1CCC1C(=O)Nc1cccc(CNc2nc(NC3CCOCC3)nc3c(C(C)C)cnn23)c1 (stereo not shown) [Compound 17, N-(3-(((8-isopropyl-2-((tetrahydro-2H-pyran-4-yl)amino)pyrazolo[1,5-a][1,3,5]triazin-4-yl)amino)methyl)phenyl)-1-(3-methylbut-2-enoyl)azetidine-2-carboxamide]
inhibition at 10 µM: 84% | IC50: > 1000 nM

C=CC(=O)N1CCC1C(=O)Nc1cccc(Nc2nc(NC3CCOCC3)nc3c(C(C)C)cnn23)c1 (stereo not shown) [Compound 86, 1-acryloyl-N-(3-((8-isopropyl-2-((tetrahydro-2H-pyran-4-yl)amino)pyrazolo[1,5-a][1,3,5]triazin-4-yl)amino)phenyl)azetidine-2-carboxamide]
inhibition at 10 µM: 99% | IC50: < 300 nM

C=CC(=O)N1CCC(C(=O)Nc2cc(F)cc(CNc3nc(NC4CCOCC4)nc4c(C(C)C)cnn34)c2)C1 (stereo not shown) [Compound 33, 1-acryloyl-N-(3-fluoro-5-(((8-isopropyl-2-((tetrahydro-2H-pyran-4-yl)amino)pyrazolo[1,5-a][1,3,5]triazin-4-yl)amino)methyl)phenyl)pyrrolidine-3-carboxamide]
inhibition at 10 µM: 86% | IC50: 300 to 1000 nM

C=CC(=O)Nc1ccc(C)c(C(=O)Nc2cccc(CNc3nc(NC4CCOCC4)nc4c(C(C)C)cnn34)c2)c1 [Compound 40B, 5-acrylamido-N-(3-(((8-isopropyl-2-((tetrahydro-2H-pyran-4-yl)amino)pyrazolo[1,5-a][1,3,5]triazin-4-yl)amino)methyl)phenyl)-2-methylbenzamide]
IC50: < 300 nM

C=CC(=O)N1CCN(C(=O)Oc2cccc(CNc3nc(NC4CCOCC4)nc4c(C(C)C)cnn34)c2)CC1 [Compound 46, 3-(((8-isopropyl-2-((tetrahydro-2H-pyran-4-yl)amino)pyrazolo[1,5-a][1,3,5]triazin-4-yl)amino)methyl)phenyl 4-acryloylpiperazine-1-carboxylate]
inhibition at 10 µM: 98% | IC50: < 300 nM

C=CC(=O)N1CCOC(C(=O)Nc2cccc(CNc3nc(OC4CCN(C)CC4)nc4c(C(C)C)cnn34)c2)C1 (stereo not shown) [Compound 112, 4-acryloyl-N-(3-(((8-isopropyl-2-((1-methylpiperidin-4-yl)oxy)pyrazolo[1,5-a][1,3,5]triazin-4-yl)amino)methyl)phenyl)morpholine-2-carboxamide]
inhibition at 10 µM: 99% | IC50: < 300 nM

C=CC(=O)N1CCCCC1C(=O)Nc1ccc(F)c(CNc2nc(NC3CCOCC3)nc3c(C(C)C)cnn23)c1 (stereo not shown) [Compound 37, 1-acryloyl-N-(4-fluoro-3-(((8-isopropyl-2-((tetrahydro-2H-pyran-4-yl)amino)pyrazolo[1,5-a][1,3,5]triazin-4-yl)amino)methyl)phenyl)piperidine-2-carboxamide]
inhibition at 10 µM: 91% | IC50: < 300 nM

C=CC(=O)N[C@H]1CC[C@@H](C(=O)Nc2cc(CNc3nc(OC4CCN(C)CC4)nc4c(C(C)C)cnn34)ccc2F)CC1 [Compound 118, (1,4-cis)-4-acrylamido-N-(2-fluoro-5-(((8-isopropyl-2-((1-methylpiperidin-4-yl)oxy)pyrazolo[1,5-a][1,3,5]triazin-4-yl)amino)methyl)phenyl)cyclohexane-1-carboxamide]
inhibition at 10 µM: 93% | IC50: 300 to 1000 nM

C=CC(=O)N1CCC(C(=O)Nc2cccc(CNc3nc(OCCOCCOC)nc4c(C(C)C)cnn34)c2)C1 (stereo not shown) [Compound 104, 1-acryloyl-N-(3-(((8-isopropyl-2-(2-(2-methoxyethoxy)ethoxy)pyrazolo[1,5-a][1,3,5]triazin-4-yl)amino)methyl)phenyl)pyrrolidine-3-carboxamide]
inhibition at 10 µM: 78% | IC50: > 1000 nM
